Experimental data reported in patent publication US7015345B2, “Propionic acid derivatives” (Asahi Kasei Pharma Corporation, priority 2002, dated 2006).
Like-named read-outs stand apart in the source and are kept apart here.

Experiments:
[1] = test system: db/db mice; assay: Hypoglycemic action and triglyceride-decreasing action in db/db mice; type: in vivo; details: Mus musculus, 360 h; for inhibition in vivo at 10 mg/kg: 10 mg/kg oral once a day for 2 weeks; for inhibition in vivo at 1 mg/kg: 1 mg/kg oral once a day for 2 weeks; for inhibition in vivo at 3 mg/kg: 3 mg/kg oral once a day for 2 weeks
Procedure: Test for Measuring Hypoglycemic Action and Triglyceride-Decreasing Action in db/db Mice
Each of test compounds was administered once a day for 2 weeks to db/db mice genetically presenting pathological conditions of obesity, hyperglycemia, and hyperlipidemia. Blood was collected from the mice immediately before the start of administration of a test sample or a vehicle on the first day. Plasma glucose levels and triglyceride levels were measured, and the mice were divided into groups so that average glucose levels and triglyceride levels gave no significant value among the groups. All the test samples were suspended in a 0.5% methylcellulose (MC) solution and orally administered. For a vehicle-administered control group, a 0.5% MC solution was orally administered. Blood samples were collected from the mice on the 15th day, and plasma glucose levels and triglyceride levels were measured. A hypoglycemic rate and triglyceride-reducing rate were calculated by using the following equations.

[2] = test system: hamsters fed with high cholesterol diet; assay: Total plasma cholesterol and non-HDL cholesterol reducing action in hamster fed high cholesterol diet; type: in vivo; details: Mesocricetus auratus, 192 h, hamsters on high cholesterol diet, 10 mg/kg oral once a day for one week, plasma on 8th day
Procedure: Test for Measuring Total Plasma Cholesterol Reducing Action and Non-HDL Cholesterol (VLDL Cholesterol+LDL Cholesterol) Reducing Action in Hamster
A test compound (10 mg/kg) was administered once a day for one week to hamsters fed with high cholesterol diet (CE-2 (Clea Japan)+1% cholesterol+10% coconut oil) for five days. The plasma cholesterol level and the plasma HDL cholesterol level were measured immediately before the start of the administration of the test sample or vehicle on the 1st day, and the hamsters were divided into groups so that the groups gave no significant value of initial levels of the both measurements. Each of the test samples was dissolved in a 0.5% methylcellulose (MC) solution and orally administered. A 0.5% methylcellulose (MC) solution was orally administered to the hamsters as a vehicle control group. A blood sample was collected on the 8th day, and the plasma cholesterol level and the plasma HDL cholesterol level were measured. The total cholesterol reducing rate was obtained by using the following equation. [formula]
Further, non-HDL cholesterol level (LDL cholesterol level+VLDL cholesterol level) was calculated as (Total cholesterol level−HDL cholesterol level), and the reducing rate thereof was calculated by using the following equation. [formula]

[3] = test system: Zucker rats; assay: Liver triglyceride contents in Zucker rats; type: in vivo; details: Rattus norvegicus, 336 h, read-out: Triglyceride reducing rate (%); for inhibition in vivo at 1 mg/kg: 1 mg/kg once a day for 2 weeks
Procedure: Measurement of Liver Triglyceride Contents in Zucker Rats
To Zucker rats, a vehicle (0.5% MC), a compound of the present invention or fenofibrate (Sigma) was administered once a day for 2 weeks. The livers were isolated on the next day of the final administration, and amounts of triglyceride in the livers were determined. Triglyceride was extracted by adding 5 ml of a mixture of hexane and isopropanol (2:1, V/V) to 100 mg of liver, homogenizing the liver using Polytron homogenizer, then sufficiently stirring and centrifuging the homogenate at 2000 g for 10 minutes at room temperature. The amount of triglyceride in the solution layer was measured.

[4] = test system: 3T3-L1 precursor adipocytes; assay: Uptake of glucose by adipocytes ([3H]-2-deoxy-glucose uptake); type: cell-based; details: Mus musculus, 100 nM compound, 4 to 5 days culture, 100 nM insulin stimulation, relative to 10 μM rosiglitazone taken as 100%, read-out: Amount of glucose uptake (%)
Procedure: (§1) Test for Uptake of Glucose By Adipocytes and Test for Triglyceride Accumulation in Adipocytes
According to the method of Mukherjee et al. (Mol. Endocrinol, 14, 1425–1433, 2000), a glucose uptake experiment was performed by using cultured cells. 3T3-L1 precursor adipocytes were cultured for 4 to 5 days in the presence of a test compound, and then stimulated with 100 nM insulin, and then the amount of [^3H]-2-deoxy-glucose (2DG) uptake by the cells was measured. The amount of glucose uptake provided after the treatment with 100 nM of each compound was measured, and represented as a relative value based on the amount of glucose uptake provided after the treatment with 10 μM rosiglitazone, which was taken as 100%.

[5] = test system: 3T3-L1 precursor adipocytes; assay: Triglyceride accumulation in adipocytes; type: cell-based; details: Mus musculus, 100 nM compound, 4 to 5 days culture, relative to 10 μM rosiglitazone taken as 100%, read-out: Amount of accumulated triglyceride (%)
Procedure: as §1
Further, 3T3-L1 precursor adipocytes were cultured for 4 to 5 days in the presence of a test compound, and then the amount of triglyceride in the cells was measured according to the method of Shibata T et al. (Eur. J. Pharmacol., 364 (2–3), 211–219, 1999). The amount of accumulated triglyceride provided after the treatment with 100 nM of each compound was measured, and represented as a relative value based on the amount of accumulated triglyceride provided after the treatment with 10 μM rosiglitazone, which was taken as 100%.

[6] = plasma glucose on 15th day vs vehicle, read-out: Hypoglycemic rate (%)
[7] = plasma triglyceride on 15th day vs vehicle, read-out: Triglyceride reducing rate (%)
[8] = non-HDL = total cholesterol - HDL cholesterol, read-out: Non-HDL cholesterol reducing rate (%)
[9] = read-out: Total cholesterol reducing rate (%)

Row | SMILES | inhibition in vivo at 10 mg/kg [1, 6] | inhibition in vivo at 10 mg/kg [1, 7] | inhibition in vivo at 10 mg/kg [2, 8] | inhibition in vivo at 10 mg/kg [2, 9] | inhibition in vivo at 10 mg/kg ([3]; 10 mg/kg once a day for 2 weeks) | Emax at 0.1 µM [4] | Emax at 0.1 µM [5] | inhibition in vivo at 1 mg/kg [1, 6] | inhibition in vivo at 1 mg/kg [1, 7] | inhibition in vivo at 1 mg/kg [3] | inhibition in vivo at 3 mg/kg [1, 6] | inhibition in vivo at 3 mg/kg [1, 7] | inhibition in vivo at 100 mg/kg ([3]; 100 mg/kg once a day for 2 weeks)
1 | CCCCCCCN(CCOc1ccc(CC(OCC)C(=O)O)cc1)C(=O)Nc1ccc(F)cc1F (stereo not drawn) [Example 2, 3-(4-{2-[3-(2,4-difluorophenyl)-1-heptylureido]ethoxy}phenyl)-2-ethoxypropionic acid] | 34% | 53% | 29% | 30% | 19% | 95% | 90% |  |  |  |  |  | 
2 | CCCCCCCN(CCOc1ccc(CC(OCC)C(=O)O)cc1)C(=O)OC (stereo not drawn) [Example 56, 2-ethoxy-3-{4-[2-(N-heptyl-N-methoxycarbonylamino)ethoxy]phenyl}propionic acid] |  |  | 40% | 39% |  | 90% | 85% | 26% | 49% | 42% |  |  | 
3 | CCCCCCCN(CCOc1ccc(CC(OCC)C(=O)O)cc1)C(=O)OCc1ccccc1 (stereo not drawn) [Example 57, 3-{4-[2-(N-benzyloxycarbonyl-N-heptylamino)ethoxy]phenyl}-2-ethoxypropionic acid] |  |  | 43% | 41% |  | 80% | 75% |  |  | 41% | 35% | 46% | 
4 | CCCCCCCN(CCOc1ccc(CC(OCC)C(=O)O)cc1)C(=O)OCCC (stereo not drawn) [Example 59, 2-ethoxy-3-{4-[2-(N-heptyl-N-propoxycarbonylamino)ethoxy]phenyl}propionic acid] |  |  | 35% | 37% |  | 88% | 77% |  |  | 40% | 18% | 21% | 
5 | CCCCCCCN(CCOc1ccc(CC(OCC)C(=O)O)cc1)C(=O)OC(C)C (stereo not drawn) [Example 66, 2-ethoxy-3-{4-[2-(N-heptyl-N-isopropyloxycarbonylamino)ethoxy]phenyl}propionic acid] |  |  | 42% | 40% |  | 95% | 80% | 32% | 57% | 44% |  |  | 
6 | C#CCOC(=O)N(CCCCCCC)CCOc1ccc(CC(OCC)C(=O)O)cc1 (stereo not drawn) [Example 67, 2-ethoxy-3-(4-{2-[N-heptyl-N-(2-propynyloxycarbonyl)amino]ethoxy}phenyl)propionic acid] |  |  | 32% | 34% |  | 91% | 92% | 17% | 26% | 47% |  |  | 
7 | CCCCCCCN(CCOc1ccc(CC(OCC)C(=O)O)cc1)C(=O)OCC(C)C (stereo not drawn) [Example 71, 2-ethoxy-3-{4-[2-(N-heptyl-N-isobutyloxycarbonylamino)ethoxy]phenyl}propionic acid] |  |  | 10% | 12% |  | 83% | 85% | 28% | 40% | 28% |  |  | 
8 | C=CCCOC(=O)N(CCCCCCC)CCOc1ccc(CC(OCC)C(=O)O)cc1 (stereo not drawn) [Example 73, 3-(4-{2-[N-(3-butenyloxycarbonyl)-N-heptylamino]ethoxy}phenyl)-2-ethoxypropionic acid] |  |  | 45% | 45% |  | 99% | 96% |  |  | 34% | 30% | 43% | 
9 | CC(C)OC(=O)C(C)(C)Oc1ccc(C(=O)c2ccc(Cl)cc2)cc1 [Fenofibrate, fenofibrate, reference compound] |  |  |  |  |  |  |  |  |  |  |  |  | 22%
